Counter-ions that a name gives are not always drawn.
Test: Sweetness adjusting action on sucrose, aspartame, sucralose, glycyrrhizin (simultaneous intake)
Format: in vivo, human
Details: 5 mM, taken simultaneously with sweetener
Procedure: To seven examiners, four kinds of 10 mL aqueous sucrose standard solutions (2.5, 5.0, 7.5 and 10.0 wt %) were presented. The examiners kept each of the solutions in their mouth for 5 seconds or so, and then spat the solution out, and were asked to consider the sweetness intensity at that time (0 to 15) to be 2.5, 5, 7.5 and 10, respectively. Next, the examiners kept 10 mL aqueous solution (7.5 wt %) of sucrose in their mouth for 5 seconds or so without knowing the kind and the concentration of the sweetener, and then spat the solution out, and compared the sweetness intensity at that time with that of the aqueous sucrose standard solution, and evaluated the sweetness intensity with a number in a range of 0 to 15. In addition, after 30 seconds, the examiners kept 10 mL pure water in their mouth, and then spat the solution out, and compared the sweetness intensity felt at that time with that of the aqueous sucrose standard solution, and evaluated the sweetness intensity in the same manner. Subsequently, the examiners were presented with 10 mL aqueous sucrose solution containing 5 mM trans-3-octenyl sulfate (7.5 wt %), and kept it in their mouth for 5 seconds or so, and then spat the solution out, and compared the sweetness intensity at that time with the sweetness intensity of the aqueous sucrose standard solution, and evaluated the sweetness intensity in the same manner. In addition, immediately after that, the examiners kept 10 mL pure water in their mouth for 5 seconds or so, and then spat the solution out, and compared the sweetness intensity at that time with that of the aqueous sucrose standard solution, and evaluated the sweetness intensity in the same manner. In addition, after 30 seconds, the examiners kept 10 mL pure water in their mouth, and then spat the solution out, and compared the sweetness intensity felt at that time with that of the aqueous sucrose standard solution, and evaluated the sweetness intensity in the same manner.
To seven examiners, 4 kinds of 10 mL aqueous sucrose standard solutions (2.5, 5.0, 7.5 and 10.0 wt %) were presented. The examiners kept each of the solutions in their mouth for 5 seconds or so, and then spat the solution out, and were asked to consider the sweetness intensity at that time (0 to 15) to be 2.5, 5, 7.5 and 10, respectively. Next, the examiners kept 10 mL aqueous solution of aspartame (494 ppm) in their mouth for 5 seconds or so without knowing the kind and the concentration of the sweetener, and then spat the solution out, and compared the sweetness intensity at that time with that of the aqueous sucrose standard solution, and evaluated the sweetness intensity with a number in a range of 0 to 15. The concentration of aspartame was prepared to have the same sweetness intensity as that of the aqueous sucrose solution (7.5 wt %) in accordance with the reference (Schiffman, S. S. et al. Chemical senses, 1999, 24, 439-447.). In addition, after 30 seconds, the examiners kept 10 mL pure water in their mouth, and then spat the solution out, and compared the sweetness intensity felt at that time with that of the aqueous sucrose standard solution, and evaluated the sweetness intensity in the same manner. Subsequently, the examiners were presented with 10 mL aqueous solution of aspartame containing 5 mM trans-3-octenyl sulfate (494 ppm), and kept it in their mouth for 5 seconds or so, and then spat the solution out, and compared the sweetness intensity at that time with the sweetness intensity of the sucrose standard solution, and evaluated the sweetness intensity in the same manner. In addition, after 30 seconds, the examiners kept 10 mL pure water in their mouth, and then spat the solution out, and compared the sweetness intensity felt at that time with that of the aqueous sucrose standard solution, and evaluated the sweetness intensity in the same manner. […]

## CCCC/C=C/CCOS(=O)(=O)O [trans-3-octenyl sulfate]
  Effect on aftertaste of sweetness remaining in the mouth: reinforces the aftertaste of sweetness remaining in the mouth
  Effect on first taste of sweetness immediately after taking sucrose, aspartame, sucralose or glycyrrhizin: inhibits the first taste of sweetness

Source: patent US10364216B2, “Alkenyl sulfate ester or salt thereof” (Kao Corporation, priority 2013, dated 2019)
